Laboratory results: patent US20220089646A1 (THE UNIVERSITY OF QUEENSLAND, priority 2019, published 2022)
*1 amine or outer side, *2 acyl side, *3 side chain or, on linkers, in order; H or OH if unused. Where a SMILES comes first, the peptide text is derived from it. Bridges are numbered along the chain shown (N, C = ends). [ ]: non-standard residue; d: D form. NHCH2CMe2S = CC(C)(CN[*:1])S[*:2]

Legend:
KOP [1] = molecular target: T1, KOP (Homo sapiens, UniProt P41145); experiment: In vitro cAMP activity at KOP (Table 10); assay type: cell-based; details: cAMP inhibition, four-parameter regression, normalised to U50488H
Method: (§1) The CP series compounds were assayed as follows: The assay was performed using a 96 well ½ area plate. The different cAMP standard solutions (3 μL/well) were plated in duplicate. The different concentrations of drug (3 μL/well), and control solutions (3 μL/well) were plated in triplicate. Following this, the acceptor bead mixture (3 μL/well) was added to the respective sets—either cAMP standard curve or the treatment. This was covered and incubated on the orbital shaker for 60 minutes at 37° C. Then, the donor bead mixture (10 μL/well) was added to each well. This was incubated at room temperature overnight on the orbital shaker.
(§2) For DP-11-06 the assay was carried out in the same way as for the CP compounds except it was incubated for 30 mins at 37° C.
(§3) For the CP series compounds and DP-11-06, the Ensight® Multimode Plate Reader was used to quantify the fluorescence units of each plate. Before reading, each plate was centrifuged at 280 g for 30 seconds. Using GraphPad Prism7® Software, cAMP concentrations were determined by fit spline/LOWESS analysis. The cAMP standard curve was used for interpolation at this point. The cAMP concentrations were then normalized to the highest cAMP concentration recorded and analyzed by one-way ANOVA for multiple comparisons. The IC50 for each compound was then calculated using GraphPad Prism7® with non-linear regression analysis using four parameter curve fitting.
(§4) The results shown in Table 10 utilized rat plasma. • Note that DP-7-11 and CP5 represent the same compound, and DP-7-12 and CP6 are the same compound. In this regard, a different regression analysis method was adopted on the above cAMP experiments. Particularly, a new non-linear regression (four-parameter) was adopted to better account for hill slope, thereby improving the regression fit.
Target sequence in this assay (P41145 whole entry): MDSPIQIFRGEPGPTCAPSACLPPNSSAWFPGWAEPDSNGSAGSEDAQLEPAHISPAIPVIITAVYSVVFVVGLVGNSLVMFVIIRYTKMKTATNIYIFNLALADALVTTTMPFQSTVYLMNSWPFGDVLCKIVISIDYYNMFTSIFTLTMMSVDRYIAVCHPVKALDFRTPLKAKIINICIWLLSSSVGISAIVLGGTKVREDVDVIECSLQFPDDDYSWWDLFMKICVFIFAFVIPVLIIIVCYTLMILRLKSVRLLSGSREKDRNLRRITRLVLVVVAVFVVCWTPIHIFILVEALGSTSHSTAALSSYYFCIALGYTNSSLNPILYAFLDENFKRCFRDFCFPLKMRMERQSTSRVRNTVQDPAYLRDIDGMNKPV

DOP = DOP (Homo sapiens, UniProt P41143); experiment: In vitro cAMP activity at DOP (Table 10); assay type: cell-based; details: cAMP inhibition, four-parameter regression
Chain of DOP (P41143 whole entry): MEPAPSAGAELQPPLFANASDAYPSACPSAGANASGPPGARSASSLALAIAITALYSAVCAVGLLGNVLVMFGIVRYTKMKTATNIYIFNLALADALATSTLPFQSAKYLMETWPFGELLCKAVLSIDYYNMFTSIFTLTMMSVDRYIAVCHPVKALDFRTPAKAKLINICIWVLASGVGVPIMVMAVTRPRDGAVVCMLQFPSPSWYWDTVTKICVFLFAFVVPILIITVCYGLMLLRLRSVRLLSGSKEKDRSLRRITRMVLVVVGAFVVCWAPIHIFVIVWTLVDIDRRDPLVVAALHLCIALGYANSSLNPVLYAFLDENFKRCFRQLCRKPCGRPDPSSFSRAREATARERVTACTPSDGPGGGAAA
Method: as §1, §2, §3
In this regard, a different regression analysis method was adopted on the above cAMP experiments. Particularly, a new non-linear regression (four-parameter) was adopted to better account for hill slope, thereby improving the regression fit.

[2] = Plasma stability assay (Table 10); assay type: in vitro ADME; details: both sexes, Wistar, rat plasma (EDTA), 37° C., 100 uM peptide, One Phase Decay, read-out: Stability (t1/2, mins) Plasma
Excerpt: (§5) FIG. 20 is a series of graphs showing the stability of selected peptides in a trypsin (left-hand graphs) and plasma (right-hand graphs) stability assay (data normalised to concentration of each peptide at t=0, determined by LCMS, within each substrate; data analysed using One Phase Decay nonlinear regression in Prism software and each experiment performed in triplicate; mean+/−SEM);
as §4
(§6) Plasma was collected in house from adult mixed-gender Wistar rats, prepared using 2% EDTA as per standard practice. Peptides were added to rat plasma samples at 37° C. (in a water bath) with final concentrations of 100 uM (1:9 peptide in water:plasma) and a 50 μL sample was immediately taken and precipitated in 150 μL cold acetonitrile (9:1 ACN:water). This sample became the baseline, or t=0 min sample. Plasma with peptide was immediately returned to the water bath and subsequent 50 μL samples were taken at 5, 10, 15, 30, 60 and 120 min. At each time point, the 50 μL of plasma collected was immediately added to cold ACN. Each collected plasma sample in ACN was directly vortexed for 30 seconds and then centrifuged at room temperature (13K rpm, 5 min). 150 μL of the supernatant was taken and directly placed in glass HPLC vials for LCMS analysis.

[3] = molecular target: T2, bovine pancreatic trypsin (Bos taurus, UniProt P00760); experiment: Trypsin stability assay (Table 10); assay type: in vitro ADME; details: bovine pancreatic trypsin solution; bovine pancreatic trypsin 2.5 μg/mL, 37° C., One Phase Decay; read-out: Stability (t1/2, mins) Trypsin
T2 construct: from tissue; host or cells: bovine pancreas
T2 sequence (P00760 24-246): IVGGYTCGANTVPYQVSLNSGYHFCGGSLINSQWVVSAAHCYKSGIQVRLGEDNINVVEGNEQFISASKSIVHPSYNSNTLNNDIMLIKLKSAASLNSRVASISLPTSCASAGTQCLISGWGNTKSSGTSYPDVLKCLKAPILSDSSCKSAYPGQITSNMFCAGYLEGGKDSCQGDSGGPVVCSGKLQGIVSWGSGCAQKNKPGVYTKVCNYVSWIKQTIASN
Excerpt: as §5
as §6, with “Plasma with peptide was immediately returned to the water bath and subsequent 50 μL samples were taken at 5, 10, 15, 30, 60 and 120 min.” left out
The protocol for the trypsin stability assay was very similar to the plasma stability assay discussed above. The only difference was the use of a trypsin solution (bovine pancreatic trypsin 2.5 μg/mL in NH4HCO3 buffer, pH approx. 8-8.5, 37° C.) instead of rat plasma. Volumes, times and preparation protocols were exactly as mentioned above.

KOP [4] = molecular target: T1, KOP; experiment: Statistics for each peptide | IC50 (nM)
Method: Table printed on a drawing sheet, FIG 12
Head of the field: Statistics for each peptide | IC50 (nM)
First copying reader's note: The table stands under a forest plot whose axis is labelled 'Mean IC50 ± 95% CI (nM)'; according to the description the IC50 values were measured in HEK-KOP cells.
Target sequence in this assay (P41145 whole entry, looked up): as the sequence (P41145 whole entry) above

Stability in cAMP buffer = assay type: physicochemical; details: over 60 minutes
Excerpt: Select compounds were also screened for stability in cAMP buffer, to assess whether they degrade spontaneously in the cell assay environment, in the absence of cellular metabolic processes.

Compound | EC50 (KOP [1]) [nM] | EC50 (DOP) [nM] | half-life at 100 uM [2] [min] | half-life [3] [min] | IC50 (KOP [4]) [nM] | Degradation in cAMP assay buffer (Stability in cAMP buffer)
CC1(C)CNC(=O)C[C@H](C(=O)N[C@@H](CCCNC(=N)N)C(=O)N[C@@H](CCCNC(=N)N)C(N)=O)NC(=O)[C@H](Cc2ccccc2)NC(=O)CNC(=O)[C@@H](NC(=O)[C@@H](N)Cc2ccc(O)cc2)CSS1 [DP-7-11, c(Tyr-SSa-Gly-Phe-D(Asp)-Arg-Arg)] | > 10000 | > 10000 |  |  |  | 
CC1(C)CNC(=O)C[C@@H](NC(=O)[C@@H](N)Cc2ccc(O)cc2)C(=O)NCC(=O)N[C@@H](Cc2ccccc2)C(=O)N[C@H](C(=O)N[C@@H](CCCNC(=N)N)C(=O)N[C@@H](CCCNC(=N)N)C(N)=O)CSS1 [DP-7-12, c(Tyr-D(Asp)-Gly-Phe-SSa-Arg-Arg)] (H-Y[dD]GFCRR-NH2; linker 2-5 via NHCH2CMe2S) | 160 |  | 206 | < 0.01 | 4.49 ± 1.59 | no degradation
